Like-named read-outs stand apart in the source and are kept apart here.

Test in all cases: biochemical
Parameters in all cases: Eurofins KinaseProfiler full panel at Km ATP, residual kinase activity (%) relative to DMSO

One experiment addresses T1, CDKL2(h) (Homo sapiens, UniProt Q92772).
T1 sequence (Q92772 1-493): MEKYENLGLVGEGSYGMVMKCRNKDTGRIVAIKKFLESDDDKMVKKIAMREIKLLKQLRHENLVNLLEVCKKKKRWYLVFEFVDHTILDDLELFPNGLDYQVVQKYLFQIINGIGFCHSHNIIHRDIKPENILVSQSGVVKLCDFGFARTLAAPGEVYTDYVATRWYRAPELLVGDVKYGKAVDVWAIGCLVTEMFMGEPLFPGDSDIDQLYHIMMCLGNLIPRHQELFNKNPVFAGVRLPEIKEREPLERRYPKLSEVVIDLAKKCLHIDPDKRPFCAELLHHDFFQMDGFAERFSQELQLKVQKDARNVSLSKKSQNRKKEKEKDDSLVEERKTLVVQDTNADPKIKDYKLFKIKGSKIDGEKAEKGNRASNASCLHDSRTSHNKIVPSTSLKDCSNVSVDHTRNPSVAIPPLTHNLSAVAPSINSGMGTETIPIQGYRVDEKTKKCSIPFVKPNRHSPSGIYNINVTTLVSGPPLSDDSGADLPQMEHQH
In short, it runs like this:
(§1)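 Radiometric kinase activity assays were run with ATP at Km and compounds at 10 µM, and remaining activity (%) was reported. A separate competitive binding screen measured DNA-tagged kinase displaced from immobilized active-site ligands by qPCR, giving percent kinase still bound at 10 µM compound in DMSO.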

Another experiment addresses T2, MRCKγ(h) (Homo sapiens, UniProt Q6DT37).
T2 construct: gene CDC42BPG
The procedure, abridged: as §1

For another experiment, the target named is T3, NEK1(h) (Homo sapiens, UniProt Q96PY6).
T3 sequence (Q96PY6 1-1258): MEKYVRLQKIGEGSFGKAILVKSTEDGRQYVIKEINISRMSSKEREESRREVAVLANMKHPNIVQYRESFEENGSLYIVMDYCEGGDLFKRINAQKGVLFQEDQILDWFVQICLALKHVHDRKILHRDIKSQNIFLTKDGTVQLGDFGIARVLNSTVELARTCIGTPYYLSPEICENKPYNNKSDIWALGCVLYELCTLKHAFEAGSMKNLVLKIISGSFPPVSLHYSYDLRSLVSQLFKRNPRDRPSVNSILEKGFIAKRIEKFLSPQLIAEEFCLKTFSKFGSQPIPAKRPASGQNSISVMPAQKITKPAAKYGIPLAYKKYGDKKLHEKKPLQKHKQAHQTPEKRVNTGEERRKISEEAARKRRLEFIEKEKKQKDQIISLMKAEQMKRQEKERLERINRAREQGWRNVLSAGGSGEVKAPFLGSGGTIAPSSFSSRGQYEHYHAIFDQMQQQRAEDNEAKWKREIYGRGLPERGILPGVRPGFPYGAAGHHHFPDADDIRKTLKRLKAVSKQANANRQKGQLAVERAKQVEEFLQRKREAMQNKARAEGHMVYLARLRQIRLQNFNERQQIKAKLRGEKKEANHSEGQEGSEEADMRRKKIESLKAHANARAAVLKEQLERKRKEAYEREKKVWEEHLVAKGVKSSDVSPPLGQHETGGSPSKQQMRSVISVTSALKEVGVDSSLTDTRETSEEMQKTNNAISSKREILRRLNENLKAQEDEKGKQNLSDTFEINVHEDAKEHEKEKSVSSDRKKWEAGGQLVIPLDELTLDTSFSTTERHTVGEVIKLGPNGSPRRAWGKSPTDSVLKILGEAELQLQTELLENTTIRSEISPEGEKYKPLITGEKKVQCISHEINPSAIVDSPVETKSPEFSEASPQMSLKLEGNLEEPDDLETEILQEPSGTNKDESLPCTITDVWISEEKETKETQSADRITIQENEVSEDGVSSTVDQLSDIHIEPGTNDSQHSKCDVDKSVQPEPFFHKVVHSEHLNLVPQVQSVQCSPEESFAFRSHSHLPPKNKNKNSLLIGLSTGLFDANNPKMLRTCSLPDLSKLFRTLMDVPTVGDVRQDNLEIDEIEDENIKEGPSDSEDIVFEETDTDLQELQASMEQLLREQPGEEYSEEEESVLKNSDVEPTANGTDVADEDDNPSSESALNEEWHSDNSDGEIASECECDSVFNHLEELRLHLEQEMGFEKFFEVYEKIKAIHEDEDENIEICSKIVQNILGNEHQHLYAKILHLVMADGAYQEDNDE
In short, it runs like this:
as §1

For another experiment, the target named is PIP5K1a(h) (Homo sapiens, UniProt Q99755). In short, it runs like this:
as §1

In another experiment the target is STK25(h) (Homo sapiens, UniProt O00506). In short, it runs like this:
as §1

Setting [1] is: read-out: Residual activity (%) Spautin-1 5aa.
Where [2] appears, read: read-out: Residual activity (%) 5as.
Setting [3] is: read-out: Residual activity (%) 5at.
Where [4] appears, read: read-out: Residual activity (%) 5ay.

Chain of STK25(h) (O00506 whole entry): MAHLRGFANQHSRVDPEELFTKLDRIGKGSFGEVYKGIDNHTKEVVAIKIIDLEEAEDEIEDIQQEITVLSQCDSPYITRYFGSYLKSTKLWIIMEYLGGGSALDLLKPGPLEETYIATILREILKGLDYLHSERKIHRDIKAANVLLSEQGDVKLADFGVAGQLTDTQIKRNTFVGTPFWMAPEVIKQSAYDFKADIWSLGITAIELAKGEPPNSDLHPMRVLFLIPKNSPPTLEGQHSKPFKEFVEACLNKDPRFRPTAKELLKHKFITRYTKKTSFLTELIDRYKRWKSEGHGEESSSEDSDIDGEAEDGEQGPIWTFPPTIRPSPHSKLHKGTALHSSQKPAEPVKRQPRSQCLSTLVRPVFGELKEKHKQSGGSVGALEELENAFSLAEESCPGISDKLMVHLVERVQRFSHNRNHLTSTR
T2 sequence (Q6DT37 whole entry): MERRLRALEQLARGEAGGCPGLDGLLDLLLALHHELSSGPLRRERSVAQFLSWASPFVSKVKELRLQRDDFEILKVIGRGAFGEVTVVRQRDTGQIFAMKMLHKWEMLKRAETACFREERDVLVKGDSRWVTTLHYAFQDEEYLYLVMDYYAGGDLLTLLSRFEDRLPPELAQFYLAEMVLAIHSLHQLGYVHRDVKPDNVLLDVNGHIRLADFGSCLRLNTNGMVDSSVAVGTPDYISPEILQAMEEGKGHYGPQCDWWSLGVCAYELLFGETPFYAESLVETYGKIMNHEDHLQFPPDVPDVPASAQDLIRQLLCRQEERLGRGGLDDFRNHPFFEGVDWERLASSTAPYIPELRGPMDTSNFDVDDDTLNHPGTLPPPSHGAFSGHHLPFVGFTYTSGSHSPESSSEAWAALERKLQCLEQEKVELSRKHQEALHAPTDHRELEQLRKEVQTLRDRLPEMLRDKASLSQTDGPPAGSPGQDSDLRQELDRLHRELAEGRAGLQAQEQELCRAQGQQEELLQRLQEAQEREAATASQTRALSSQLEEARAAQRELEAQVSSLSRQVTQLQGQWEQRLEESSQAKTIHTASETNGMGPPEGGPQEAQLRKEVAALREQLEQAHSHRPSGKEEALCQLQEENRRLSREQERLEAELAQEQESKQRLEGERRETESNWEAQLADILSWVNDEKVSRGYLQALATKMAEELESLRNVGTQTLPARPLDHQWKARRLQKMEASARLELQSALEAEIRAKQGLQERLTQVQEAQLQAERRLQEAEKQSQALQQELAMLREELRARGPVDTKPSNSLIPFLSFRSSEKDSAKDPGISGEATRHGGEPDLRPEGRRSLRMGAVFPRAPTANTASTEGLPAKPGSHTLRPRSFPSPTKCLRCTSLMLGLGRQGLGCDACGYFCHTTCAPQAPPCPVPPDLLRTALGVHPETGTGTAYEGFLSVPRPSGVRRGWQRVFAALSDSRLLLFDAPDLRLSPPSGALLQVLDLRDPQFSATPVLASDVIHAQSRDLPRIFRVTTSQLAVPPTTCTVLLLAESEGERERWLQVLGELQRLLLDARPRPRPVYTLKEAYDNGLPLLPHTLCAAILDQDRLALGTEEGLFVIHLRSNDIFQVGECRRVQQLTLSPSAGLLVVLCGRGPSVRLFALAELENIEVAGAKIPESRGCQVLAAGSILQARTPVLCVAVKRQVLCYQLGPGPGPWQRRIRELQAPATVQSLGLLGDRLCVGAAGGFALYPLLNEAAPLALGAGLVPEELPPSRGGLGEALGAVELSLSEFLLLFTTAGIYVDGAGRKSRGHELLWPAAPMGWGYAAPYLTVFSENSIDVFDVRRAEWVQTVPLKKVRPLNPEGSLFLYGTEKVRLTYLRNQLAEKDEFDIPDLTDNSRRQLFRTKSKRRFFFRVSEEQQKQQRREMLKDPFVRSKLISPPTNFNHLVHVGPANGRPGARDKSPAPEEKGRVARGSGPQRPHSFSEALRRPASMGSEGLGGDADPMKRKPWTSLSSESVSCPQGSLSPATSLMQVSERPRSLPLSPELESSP
Chain of PIP5K1a(h) (Q99755 whole entry): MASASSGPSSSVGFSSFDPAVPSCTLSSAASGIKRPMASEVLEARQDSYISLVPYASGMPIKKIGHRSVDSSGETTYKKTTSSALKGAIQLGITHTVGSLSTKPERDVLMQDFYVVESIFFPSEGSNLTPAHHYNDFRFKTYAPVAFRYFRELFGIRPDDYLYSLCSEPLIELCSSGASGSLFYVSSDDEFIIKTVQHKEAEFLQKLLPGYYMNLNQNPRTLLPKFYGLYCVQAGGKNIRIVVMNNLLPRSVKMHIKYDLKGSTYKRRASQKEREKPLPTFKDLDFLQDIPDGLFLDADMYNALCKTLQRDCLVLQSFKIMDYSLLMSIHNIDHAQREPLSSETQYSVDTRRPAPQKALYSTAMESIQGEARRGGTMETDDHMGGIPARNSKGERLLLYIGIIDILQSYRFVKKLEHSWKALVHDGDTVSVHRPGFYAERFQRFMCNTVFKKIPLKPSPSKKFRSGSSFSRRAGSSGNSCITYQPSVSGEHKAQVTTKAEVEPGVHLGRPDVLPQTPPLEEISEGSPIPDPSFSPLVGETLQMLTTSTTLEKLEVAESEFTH

`Fc1ccc(CNc2ncnc3ccc(F)cc23)cc1` [5aa, 6-Fluoro-N-(4-fluorobenzyl)-4-Quinazolinamine]: the remaining activity at 10 µM on CDKL2(h) (setting [1]) amounted to 87%; on MRCKγ(h) (setting [1]), 105%; on NEK1(h) (setting [1]) it was 81%; on PIP5K1a(h) (setting [1]) it was 104%; on STK25(h) (setting [1]), 114%.

`Fc1ccc(CCNc2ncnc3ccc(F)cc23)cc1` [5as, 6-Fluoro-N-[2-(4-Fluorophenyl)Ethyl]-4-Quinazolinamine]: the remaining activity at 10 µM at CDKL2(h) (setting [2]) amounted to 103%; on MRCKγ(h) (setting [2]), 98%; at NEK1(h) (setting [2]), 97%; on PIP5K1a(h) (setting [2]) it was 103%; on STK25(h) (setting [2]), 112%.

Take `Fc1ccc2ncnc(NCCc3ccc(Cl)cc3)c2c1` [5at, N-[2-(4-Chlorophenyl)Ethyl]-6-Fluoro-4-Quinazolinamine]: the remaining activity at 10 µM on CDKL2(h) (setting [3]) was found to be 67%; on MRCKγ(h) (setting [3]) it was 102%; on NEK1(h) (setting [3]) it was 70%; at PIP5K1a(h) (setting [3]), 104%; on STK25(h) (setting [3]), 111%.

In the case of `COc1ccc2ncnc(Nc3cccc(F)c3)c2c1` [5ay, N-(3-Fluorophenyl)-6-Methoxy-4-Quinazolinamine], the remaining activity at 10 µM was determined as 67% on CDKL2(h) (setting [4]); 92% on MRCKγ(h) (setting [4]); 60% at NEK1(h) (setting [4]); 101% on PIP5K1a(h) (setting [4]); 114% on STK25(h) (setting [4]).
